The values below come from US10479780B2, “Aminopyrazole derivatives” (Chugai Seiyaku Kabushiki Kaisha, priority 2015, dated 2019).

SMILES strings stand for the structures. Read-outs that look alike come from different tables or passages of the source.

Holding throughout (format): biochemical
Assay [1] concerns the target T1, human Lck enzyme (Homo sapiens, UniProt P06239).
T1 construct: purchased Carna Biosciences, Inc. 08-170
Description: Lck enzyme inhibitory activity (time-resolved fluorometry, biotinylated peptide phosphorylation). The note with it: read-out: LCK_IC50. Summed up: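 Readout pairs a europium cryptate-labelled anti-phosphotyrosine antibody with XL665-streptavidin, measured by time-resolved fluorescence. IC50 derived from percent inhibition against untreated controls.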

The target in assay [2] is T2, human Src enzyme (Homo sapiens, UniProt P12931).
T2 construct: purchased Carna Biosciences, Inc. 08-173
The assay is described as follows: Src enzyme inhibitory activity (time-resolved fluorometry, biotinylated peptide phosphorylation). Particulars: read-out: SRC_IC50. Summed up:
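Compounds were tested for blocking tyrosine phosphorylation of a biotinylated peptide substrate by recombinant human Src. Phosphorylated product was quantified by time-resolved fluorometry using europium cryptate and XL665 conjugates, and IC50 was calculated against the compound-free control.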

Assay [3] addresses T3, human Yes1 enzyme (Homo sapiens, UniProt P07947).
T3 construct: made in house
The assay is described as follows: Yes1 enzyme inhibitory activity (time-resolved fluorometry, biotinylated peptide phosphorylation). The note with it: read-out: YES_IC50. Summed up:
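Inhibition was expressed against a compound-free control to give IC50, using TR-FRET read-out (Eu-cryptate anti-pTyr antibody, streptavidin-XL665).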

Setting [4] is: biotinylated peptide phosphorylation.

T1 sequence (P06239 whole entry): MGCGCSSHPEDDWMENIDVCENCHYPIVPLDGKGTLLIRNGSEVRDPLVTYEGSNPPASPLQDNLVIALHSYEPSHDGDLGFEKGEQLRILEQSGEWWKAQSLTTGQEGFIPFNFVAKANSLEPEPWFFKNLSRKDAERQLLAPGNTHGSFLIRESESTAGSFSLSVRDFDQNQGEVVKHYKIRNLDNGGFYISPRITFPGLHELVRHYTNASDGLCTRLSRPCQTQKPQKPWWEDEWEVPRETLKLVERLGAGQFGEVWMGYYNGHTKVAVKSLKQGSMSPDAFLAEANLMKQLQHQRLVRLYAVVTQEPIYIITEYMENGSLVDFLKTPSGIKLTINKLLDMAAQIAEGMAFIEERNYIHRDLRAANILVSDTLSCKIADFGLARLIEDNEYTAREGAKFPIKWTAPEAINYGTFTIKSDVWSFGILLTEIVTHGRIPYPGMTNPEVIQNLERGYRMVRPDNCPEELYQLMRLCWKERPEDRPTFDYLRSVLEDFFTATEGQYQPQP
T2 sequence (P12931 whole entry): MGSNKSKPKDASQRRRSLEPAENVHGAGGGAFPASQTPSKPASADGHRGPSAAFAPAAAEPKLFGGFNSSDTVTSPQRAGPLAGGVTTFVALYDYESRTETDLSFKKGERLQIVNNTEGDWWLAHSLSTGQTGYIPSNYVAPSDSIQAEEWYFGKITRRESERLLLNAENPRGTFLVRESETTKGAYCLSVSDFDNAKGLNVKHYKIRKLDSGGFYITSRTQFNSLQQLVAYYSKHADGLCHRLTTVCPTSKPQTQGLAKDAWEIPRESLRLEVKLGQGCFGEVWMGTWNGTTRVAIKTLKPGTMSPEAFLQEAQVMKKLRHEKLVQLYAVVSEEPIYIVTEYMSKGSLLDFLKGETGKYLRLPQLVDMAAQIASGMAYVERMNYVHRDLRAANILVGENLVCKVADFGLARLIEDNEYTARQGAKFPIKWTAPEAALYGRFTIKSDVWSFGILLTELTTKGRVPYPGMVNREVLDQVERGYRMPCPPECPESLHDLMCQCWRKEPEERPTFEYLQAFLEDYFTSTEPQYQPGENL
T3 sequence (P07947 whole entry): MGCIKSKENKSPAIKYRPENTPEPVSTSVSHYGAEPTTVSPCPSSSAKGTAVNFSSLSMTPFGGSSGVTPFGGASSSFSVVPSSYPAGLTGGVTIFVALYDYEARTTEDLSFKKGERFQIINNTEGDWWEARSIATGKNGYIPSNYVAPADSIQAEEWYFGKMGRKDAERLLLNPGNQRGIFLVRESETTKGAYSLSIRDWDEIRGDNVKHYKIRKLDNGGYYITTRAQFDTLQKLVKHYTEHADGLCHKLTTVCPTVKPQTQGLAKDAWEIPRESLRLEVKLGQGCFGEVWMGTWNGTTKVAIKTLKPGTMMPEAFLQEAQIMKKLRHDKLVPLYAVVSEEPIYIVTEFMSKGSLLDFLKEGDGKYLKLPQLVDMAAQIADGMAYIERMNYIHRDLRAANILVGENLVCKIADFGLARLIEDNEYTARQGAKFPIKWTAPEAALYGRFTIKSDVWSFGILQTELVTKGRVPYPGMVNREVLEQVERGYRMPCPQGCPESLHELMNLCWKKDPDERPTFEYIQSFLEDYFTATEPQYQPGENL

As to `Cc1cc(Oc2ccccc2F)ccc1-n1ncc(C(=O)c2cc3cc(F)c(NS(=O)(=O)CC(=O)N4CCN(C(C)C)CC4)cc3[nH]2)c1N` [Example 4-10-003, N-[2-[5-amino-1-[4-(2-fluorophenoxy)-2-methylphenyl]pyrazole-4-carbonyl]-5-fluoro-1H-indol-6-yl]-2-oxo-2-(4-propan-2-ylpiperazin-1-yl)ethanesulfonamide 2,2,2-trifluoroacetate], the IC50 turned out to be 0.0049 µM in assay [1] (setting [4]), 0.026 µM in assay [2] (setting [4]) and 0.00075 µM in assay [3] (setting [4]).
Regarding `Cc1cc2cc(C(=O)c3cnn(-c4ccc(Oc5ncccc5Cl)cc4Cl)c3N)[nH]c2cc1NS(=O)(=O)N1CCOCC1` [Example 5-1-065, N-[2-[5-amino-1-[2-chloro-4-(3-chloropyridin-2-yl)oxyphenyl]pyrazole-4-carbonyl]-5-methyl-1H-indol-6-yl]morpholine-4-sulfonamide], the values for the IC50 in assay [1], in assay [2] and in assay [3] were 0.12 µM, 0.35 µM and 0.0077 µM, respectively.
For `COc1cc2cc(C(=O)c3cnn(-c4cnc(Oc5ccccc5F)cc4C)c3N)[nH]c2cc1NS(=O)(=O)N1CCOCC1` [Example 4-12-001, N-{2-{5-amino-1-[6-(2-fluorophenoxy)-4-methylpyridin-3-yl]pyrazole-4-carbonyl}-5-methoxy-1H-indol-6-yl}morpholine-4-sulfonamide], the IC50 came out at 0.045 µM in assay [1] (setting [4]), 0.14 µM in assay [2] (setting [4]) and 0.0029 µM in assay [3] (setting [4]).
For `Cc1cc(Oc2c(F)cccc2F)ncc1-n1ncc(C(=O)c2cc3cc(C4CC4)c(NS(=O)(=O)CCCF)cc3[nH]2)c1N` [Example 5-1-427, N-[2-[5-amino-1-[6-(2,6-difluorophenoxy)-4-methylpyridin-3-yl]pyrazole-4-carbonyl]-5-cyclopropyl-1H-indol-6-yl]-3-fluoropropane-1-sulfonamide] the same measures were 0.043 µM, 0.17 µM and 0.0038 µM.
`Cc1cc(Oc2ccccc2F)ccc1-n1ncc(C(=O)c2cc3cc(OC(F)F)c(NS(C)(=O)=O)cc3[nH]2)c1N` [Example 4-24-002, N-[2-[5-amino-1-[4-(2-fluorophenoxy)-2-methylphenyl]pyrazole-4-carbonyl]-5-(difluoromethoxy)-1H-indol-6-yl]methanesulfonamide]: the IC50 in assay [1] (setting [4]) was determined as 0.01 µM; in assay [2] (setting [4]), 0.035 µM; in assay [3] (setting [4]) it was 0.0016 µM.
As to `Cc1cc(Oc2c(F)cccc2F)ncc1-n1ncc(C(=O)c2cc3cc(F)c(N4C(=O)NC5(CCCC5)C4=O)cc3[nH]2)c1N` [Example 5-1-344, 3-[2-[5-amino-1-[6-(2,6-difluorophenoxy)-4-methylpyridin-3-yl]pyrazole-4-carbonyl]-5-fluoro-1H-indol-6-yl]-1,3-diazaspiro[4.4]nonane-2,4-dione], the IC50 turned out to be 0.013 µM in assay [1], 0.15 µM in assay [2] and 0.0047 µM in assay [3].
